Residues, ends and D or L forms follow the SMILES beside them.
Assays:
[1] = target: T1, recombinant human dipeptidyl peptidase IV (rhDpp4) (Homo sapiens, UniProt P27487); assay: Inhibiting activity against rhDpp4 (G-P-pNA cleavage, absorbance at 405 nm); assay type: biochemical
T1 construct: purchased R&D Systems 1180-SE
Procedure: The inhibiting activity of each test compound was determined against the cleaving activity of GLY-PRO-p-nitroanihde (G-P-pNA, by Sigma, #G-0513), which is a synthetic substrate of recombinant human dipeptidyl peptidase IV (rhDpp4, by R&D Systems, #1180-SE). G-P-pNA was cleaved between PRO and pNA by rhDpp4. Since pNA is absorbed at 405 nm, the value thereof was measured to determine the cleavage amount.
The reaction solution (25 mM Tris (pH8.0), 100 uM G-P-pNA, 0.25 ng/ul rhDPP4) was prepared and added to the test compound so that the final concentration of the test compound became 2 mM (1% DMSO concentration). The reaction solution was kept in 37° C. for 30 minutes. After that, the absorbance at 405 nm was measured at once by a spectrophotometer. The reaction was conducted in 200 ul scale with a 96-well microplate.
At the same time, the absorbance at 405 nm of each 100, 33, 11, 3.7, 1.2, 0.41, and 0.14 uM pNA solution was measured to obtain the relational formula of pNA concentration and absorbance, and the pNA amount (the substrate cleavage amount) in each reaction solution was calculated.
As for the inhibition rate, 3 to 4 wells without the test compound were prepared in the same plate. Then, the inhibition rate was calculated and shown in percentage by using the following formula from the proportion of the substrate cleavage amount (B) of the well to which each test compound was added to the average amount (A) of the substrate cleavage amount of the well without the test compound.
Inhibition rate (%)=100×(1−(B)/(A))

[2] = test system: rat hepatic cells; assay: Measurement of autophagy (proteolysis, valine release) by using rat hepatic cells; assay type: cell-based
Procedure: Male Wistar rats of 140 to 180 g which were freely fed were used to prepare rat hepatic cells by the collagenase perfusion method (Seglen, P.O. Preparation of isolated liver cells. (1976) In Methods in Cell Biology eds. D. M. Prescott, 13, 29-83. Academic: New York/London). By this method, 2 to 2.5×10^8 cells of the hepatic cells per one individual's […] could be prepared.
The protein decomposition (autophagy) of the prepared hepatic cells was determined by the method of Venerando, et al. Namely, the hepatic cells were put in a 10 mL flask with 3.5 mL of KRB buffer (24 mM bicarbonate, 6 mM glucose) to prepare a cell suspension (1 to 1.2×10^6 cells/mL). The solution was kept and left in 37° C. for 45 minutes in a carbon dioxide incubator. Then, various chemical treatments were conducted under the existence of 20 uM cycloheximide in order to stop the protein synthesis, and the solution was kept at 37° C. for […]. At each 31 minutes and 42 minutes, 0.35 mL of the hepatic cell suspension was taken out, and a perchloric acid cooled with ice (final concentration 6%) was added to the latter and preserved at −20° C. Valine in the supernatant of the acid-soluble fraction was measured, and valine release for 11 minutes was determined. […]

[3] = target: T2, p103 (rat dipeptidyl peptidase IV, DPP4) (Rattus norvegicus, UniProt P14740); assay: Bond of Leu8-MAP to leucine binding protein p103 on the hepatocyte membrane, competition by free amino acids; conditions: excess free amino acid
T2 construct: from tissue; host or cells: rat hepatocyte membrane
T2 sequence (P14740 whole entry): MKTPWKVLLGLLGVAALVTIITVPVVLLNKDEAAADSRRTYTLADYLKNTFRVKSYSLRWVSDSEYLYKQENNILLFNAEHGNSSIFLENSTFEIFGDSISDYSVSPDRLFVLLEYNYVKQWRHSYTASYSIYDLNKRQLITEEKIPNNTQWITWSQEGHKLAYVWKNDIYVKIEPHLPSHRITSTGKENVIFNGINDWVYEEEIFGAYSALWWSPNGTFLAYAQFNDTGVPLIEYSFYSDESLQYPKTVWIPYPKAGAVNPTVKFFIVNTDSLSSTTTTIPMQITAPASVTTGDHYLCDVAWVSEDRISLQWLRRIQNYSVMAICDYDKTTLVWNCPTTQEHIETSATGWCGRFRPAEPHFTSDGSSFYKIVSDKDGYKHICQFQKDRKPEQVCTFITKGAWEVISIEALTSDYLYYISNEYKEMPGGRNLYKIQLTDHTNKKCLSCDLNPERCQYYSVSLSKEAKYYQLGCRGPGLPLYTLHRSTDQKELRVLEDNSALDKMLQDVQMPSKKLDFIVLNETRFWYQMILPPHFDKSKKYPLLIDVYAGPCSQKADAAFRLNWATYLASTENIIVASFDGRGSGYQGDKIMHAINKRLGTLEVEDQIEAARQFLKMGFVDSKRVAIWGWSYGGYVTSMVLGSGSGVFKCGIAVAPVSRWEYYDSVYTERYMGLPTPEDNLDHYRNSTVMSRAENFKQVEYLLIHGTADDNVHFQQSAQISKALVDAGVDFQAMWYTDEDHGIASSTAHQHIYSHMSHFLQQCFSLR
Excerpt: In order to solve the above problems, the inventors attempted to identify leucine binding protein that exists on the membrane of rat hepatic cells by using a membrane-impermeable leucine derivative (Leu8-MAP). As a result of the thorough search, they found a molecular weight of 103-kilodalton leucine-specific binding protein (p103) on the hepatocyte membrane. Though the bond of Leu8-MAP to p103 was inhibited by excess free leucine, it was not inhibited by isoleucine or valine. Therefore, p103 was protein that selectively bonds to leucine. Further, as a result of various examinations on the condition for purifying p103 from the hepatocyte membrane, they succeeded in isolating the above protein by purification and detected it as a single band protein by SDS-PAGE electrophoresis. This band was cleaved from the gel, and peptide fragmentation was conducted thereto by the in-gel reduction/alkylation and the enzyme digestion. Then, the mass spectrometry was conducted by providing the fragment with the equipment wherein a nanoHPLC system (Ultimate: Nippon Dionex K.K.) was connected to an ion trap mass spectrometer (LCQ: Thermo Electron Co., Ltd.). The obtained data was identified with a database search system (Mascot: Matrix Science, Ltd.). MSDB (Jan. 6, 2004 ver. by Matrix Science, Ltd.) was used as the sequence database for search. As a result, rat dipeptidyl peptidase IV (DPP4: EC 3.4.14.5) could be identified at a high score.

T1 sequence (P27487 whole entry): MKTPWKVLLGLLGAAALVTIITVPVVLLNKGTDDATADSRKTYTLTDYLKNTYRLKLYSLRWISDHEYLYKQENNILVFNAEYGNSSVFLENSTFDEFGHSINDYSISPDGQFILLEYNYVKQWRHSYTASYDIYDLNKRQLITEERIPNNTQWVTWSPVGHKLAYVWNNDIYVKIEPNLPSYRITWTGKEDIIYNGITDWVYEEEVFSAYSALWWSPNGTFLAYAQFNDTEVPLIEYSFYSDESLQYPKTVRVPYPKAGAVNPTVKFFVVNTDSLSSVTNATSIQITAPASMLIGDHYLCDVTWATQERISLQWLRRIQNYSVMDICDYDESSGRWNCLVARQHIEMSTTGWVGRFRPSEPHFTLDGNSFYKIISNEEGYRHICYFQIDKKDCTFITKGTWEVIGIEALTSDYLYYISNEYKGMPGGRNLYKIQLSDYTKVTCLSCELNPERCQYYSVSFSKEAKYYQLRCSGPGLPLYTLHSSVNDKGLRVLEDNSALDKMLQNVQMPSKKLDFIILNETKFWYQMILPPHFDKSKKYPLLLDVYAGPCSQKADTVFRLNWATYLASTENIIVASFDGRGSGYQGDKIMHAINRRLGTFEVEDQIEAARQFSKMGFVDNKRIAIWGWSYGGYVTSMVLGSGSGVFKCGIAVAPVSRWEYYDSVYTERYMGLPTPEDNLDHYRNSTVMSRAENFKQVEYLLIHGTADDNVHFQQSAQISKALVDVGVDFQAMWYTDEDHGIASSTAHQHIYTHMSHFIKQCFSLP

| SMILES | Dpp4 inhibiting activity among 20 kinds of amino acids (FIG. 2, substrate cleavage rate), in words [1] | inhibition of the bond of Leu8-MAP to p103, in words [3] | other results |
| --- | --- | --- | --- |
| CC(C)C[C@H](N)C(=O)O [Leucine, L-leucine] | has the Dpp4 inhibiting activity | inhibited | concentration-dependent Dpp4 inhibiting activity (FIG. 1), in words ([1]; FIG. 1): inhibits Dpp4; effect on autophagy induced by amino acid starvation, in words [2]: strongly inhibits autophagy; Inhibition of proteolysis (%) ([2]; starvation induced proteolysis, 20 uM cycloheximide, valine release for 11 minutes): 27.9% |
| CSCC[C@H](N)C(=O)O [Met, L-methionine] | has the Dpp4 inhibiting activity |  |  |
| CC(C)C[C@H](NC(=O)[C@@H](N)CCCCN)C(=O)O [R1=L-Lys, R2=OH, Lys-Leu] (H-Lys-Leu-OH) |  |  | Inhibition rate (%) ([1]; test compound 2 mM, 100 uM G-P-pNA, 0.25 ng/ul rhDPP4, 37° C. for 30 minutes): 38.4% |
| CC[C@H](C)[C@H](N)C(=O)O [isoleucine] |  | not inhibited |  |
| CC(C)[C@H](N)C(=O)O [valine] |  | not inhibited |  |

Reference: patent US20080175837A1, “DPP4 INHIBITOR AND PHARMACEUTICAL USE THEREOF” (AJINOMOTO CO., INC, priority 2005, published 2008)
